Paper PMC3319192 (Molecular Pharmaceutics, 2012)

What was measured:
wildtype OATP1B3 = target: T1, wildtype OATP1B3 (Homo sapiens, UniProt Q9NPD5)
T1 sequence (Q9NPD5 1-702): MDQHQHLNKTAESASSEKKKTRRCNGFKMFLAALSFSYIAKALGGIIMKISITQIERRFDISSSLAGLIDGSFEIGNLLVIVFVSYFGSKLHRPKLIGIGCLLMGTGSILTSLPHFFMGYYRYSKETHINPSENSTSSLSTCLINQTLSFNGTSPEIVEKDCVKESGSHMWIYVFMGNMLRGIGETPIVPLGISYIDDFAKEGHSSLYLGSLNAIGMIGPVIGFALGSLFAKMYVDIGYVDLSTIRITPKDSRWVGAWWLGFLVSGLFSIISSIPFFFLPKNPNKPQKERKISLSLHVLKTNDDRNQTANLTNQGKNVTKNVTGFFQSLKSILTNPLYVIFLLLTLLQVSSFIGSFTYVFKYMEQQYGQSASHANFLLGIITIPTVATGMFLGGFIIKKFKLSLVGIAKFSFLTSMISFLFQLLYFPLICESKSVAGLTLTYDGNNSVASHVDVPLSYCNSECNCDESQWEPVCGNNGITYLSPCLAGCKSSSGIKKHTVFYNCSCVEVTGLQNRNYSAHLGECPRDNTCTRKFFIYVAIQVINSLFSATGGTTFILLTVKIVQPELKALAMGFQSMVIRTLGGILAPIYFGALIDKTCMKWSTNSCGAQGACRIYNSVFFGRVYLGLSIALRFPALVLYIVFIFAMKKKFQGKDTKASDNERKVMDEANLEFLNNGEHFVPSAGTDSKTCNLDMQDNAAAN

OATP1B1 A45G/L545S/T615I = target: T2, OATP1B1 A45G/L545S/T615I (Homo sapiens, UniProt Q9Y6L6, A45G/L545S/T615I)
T2 sequence (Q9Y6L6 1-691 A45G/L545S/T615I): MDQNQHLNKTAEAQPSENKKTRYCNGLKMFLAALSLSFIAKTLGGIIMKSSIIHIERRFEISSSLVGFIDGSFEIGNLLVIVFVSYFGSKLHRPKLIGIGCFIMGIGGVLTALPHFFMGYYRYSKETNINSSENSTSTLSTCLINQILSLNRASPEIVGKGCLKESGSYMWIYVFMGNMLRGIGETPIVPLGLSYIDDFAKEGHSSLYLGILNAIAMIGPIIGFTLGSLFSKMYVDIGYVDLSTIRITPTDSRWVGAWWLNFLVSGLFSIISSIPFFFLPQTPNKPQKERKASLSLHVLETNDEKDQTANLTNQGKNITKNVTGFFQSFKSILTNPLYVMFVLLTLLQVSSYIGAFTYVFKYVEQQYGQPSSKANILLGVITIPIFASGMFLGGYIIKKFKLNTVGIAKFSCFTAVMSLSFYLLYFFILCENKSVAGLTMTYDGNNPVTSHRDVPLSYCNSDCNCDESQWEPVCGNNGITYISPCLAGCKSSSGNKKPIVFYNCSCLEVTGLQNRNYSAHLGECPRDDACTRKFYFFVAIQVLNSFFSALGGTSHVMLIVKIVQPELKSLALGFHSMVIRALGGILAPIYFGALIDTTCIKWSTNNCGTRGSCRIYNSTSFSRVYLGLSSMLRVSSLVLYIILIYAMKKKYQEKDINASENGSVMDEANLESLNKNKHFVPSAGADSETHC

## L-aspartyl-L-tryosyl-L-methionylgylcyl-L-tryptophyl-L-methionyl-L-aspartyl-L-phenylalaninamide hydrogen sulfate ester [CCK-8]
Wildtype OATP1B3
  Km: 6.5 ± 2 µM
OATP1B1 A45G/L545S/T615I
  Km: 15.4 ± 4.2 µM
